Source: patent US12565501B2, “Muscarinic acetylcholine M1 receptor antagonists” (Contineum Therapeutics, Inc., priority 2019, dated 2026)

biological target: T1, human M1 receptor (Homo sapiens, UniProt P11229); assay: In vitro functional assay of muscarinic acetylcholine receptor activity (aequorin calcium flux, reversal of EC80 acetylcholine response); format: cell-based; conditions: CHO-K1 cells stably expressing human M1 receptor with aequorin; acetylcholine at EC80; calcium flux (luminescence); read-out: M1 IC50
T1 sequence (P11229 1-460): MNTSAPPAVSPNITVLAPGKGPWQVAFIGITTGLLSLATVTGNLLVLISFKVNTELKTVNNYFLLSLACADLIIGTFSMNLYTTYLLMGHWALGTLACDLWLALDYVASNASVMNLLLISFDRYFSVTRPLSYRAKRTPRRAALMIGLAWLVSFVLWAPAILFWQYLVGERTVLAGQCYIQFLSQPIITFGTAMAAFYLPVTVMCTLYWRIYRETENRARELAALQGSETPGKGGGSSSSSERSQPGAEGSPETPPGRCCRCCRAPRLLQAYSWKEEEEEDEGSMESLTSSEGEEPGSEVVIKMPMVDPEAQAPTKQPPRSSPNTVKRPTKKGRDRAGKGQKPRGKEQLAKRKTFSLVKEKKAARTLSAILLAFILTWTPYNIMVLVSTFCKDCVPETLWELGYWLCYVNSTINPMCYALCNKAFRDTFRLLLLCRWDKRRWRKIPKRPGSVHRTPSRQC
Protocol: CHO-K1 cells stably expressing human M1 receptor with aequorin (Perkin Elmer) were grown in F12 media (Gibco) containing 10% FBS (ATCC), 0.4 mg/mL geneticin (Sigma-Aldrich) and 0.25 mg/mL Zeocin (Invitrogen). Cells were grown as per the manufacturer's protocol. For compound testing, cells were grown to confluency and detached gently with Accutase (Sigma-Aldrich) followed by centrifugation for 5 min at 150× g. Cells were then re-suspended in assay buffer (i.e. DMEM/F-12 HEPES without phenol red (Invitrogen) with 0.1% BSA (Sigma-Aldrich)) at a density of 5×10^6 cells/ml. Under sterile conditions, 5 μM coelenterazine (Invitrogen) was added to the cells, mixed, then incubated at room temperature protected from light, with gentle agitation, for 4 h.
Primary compound plates were prepared in 100% DMSO in opaque 96-well plates (VWR) and serially diluted in half log increments. Secondary compound plates were prepared at 3× concentration in assay buffer. Compounds were added to white, clear bottom tissue culture treated 96-well plates (Fisher Scientific). Coelenterazine-loaded cells were then added at 5×10^5 cells/well.
Compounds and cells were incubated at room temperature for 30 min in the dark. Acetylcholine at the EC80 concentration was added and calcium flux measured using a FlexStation 3 (Molecular Devices). Sigmoidal dose-response curves were generated by measuring luminescence over 40 sec and calculating the area under the curve. Dose response curves and IC50 values were generated using Prism (GraphPad). Compounds were tested at a final concentration range of 100 μM to […] in 0.1% DMSO.

Compound	IC50 [nM]
6-(3-(2-(1-(1-methyl-6-oxo-1,6-dihydropyridin-3-yl) cyclopropoxy)acetyl)-3,8-diazabicyclo[3.2.1]octan- 8-yl)nicotinonitrile [Example 301]	100 to 1000
N#Cc1ccc(N2[C@@H]3CC[C@H]2CN(C(=O)CCN2CCC2c2ccc(F)cc2)C3)nc1 (mixture of isomers) [Example 23, 6-(3-(3-(2-(4-fluorophenyl)azetidin-1-yl)propanoyl)-3,8-diazabicyclo[3.2.1]octan-8-yl)nicotinonitrile]	1000 to 10000
COc1cccc2c1CCN(CCC(=O)N1C[C@H]3CC[C@@H](C1)N3c1ccc(C#N)cn1)C2C (mixture of isomers) [Example 38, 6-(3-(3-(5-methoxy-1-methyl-3,4-dihydroisoquinolin-2(1H)-yl)propanoyl)-3,8-diazabicyclo[3.2.1]octan-8-yl)nicotinonitrile]	1000 to 10000
CC(NCCC(=O)N1CC2CCC(C1)N2c1ccc(C#N)cn1)c1cccc2ncccc12 (racemic) [Example 48, 6-(3-(3-((1-(quinolin-5-yl)ethyl)amino)propanoyl)-3,8-diazabicyclo[3.2.1]octan-8-yl)nicotinonitrile]	< 10
CC(C)(O)C(NCCC(=O)N1C[C@H]2CC[C@@H](C1)N2c1ccc(C#N)cn1)c1ccccc1 (mixture of isomers) [Example 49, 6-(3-(3-((2-hydroxy-2-methyl-1-phenylpropyl)amino)propanoyl)-3,8-diazabicyclo[3.2.1]octan-8-yl)nicotinonitrile]	1000 to 10000
COc1cnc2cccc(C(C)NCCC(=O)N3C[C@H]4CC[C@@H](C3)N4c3ccc(C#N)cn3)c2c1 (mixture of isomers) [Example 50, 6-(3-(3-((1-(3-methoxyquinolin-5-yl)ethyl)amino)propanoyl)-3,8-diazabicyclo[3.2.1]octan-8-yl)nicotinonitrile]	< 10
CC(NCCC(=O)N1C[C@H]2CC[C@@H](C1)N2c1ccc(C#N)cn1)c1cccc2ncsc12 (mixture of isomers) [Example 51, 6-(3-(3-((1-(benzo[d]thiazol-7-yl)ethyl)amino)propanoyl)-3,8-diazabicyclo[3.2.1]octan-8-yl)nicotinonitrile]	10 to 100
N#Cc1ccc(N2[C@@H]3CC[C@H]2CN(C(=O)CCNC(c2cccc4ncsc24)C(F)(F)F)C3)nc1 (mixture of isomers) [Example 52, 6-(3-(3-((1-(benzo[d]thiazol-7-yl)-2,2,2-trifluoroethyl)amino)propanoyl)-3,8-diazabicyclo[3.2.1]octan-8-yl)nicotinonitrile]	< 10
CC(NCCC(=O)N1C[C@H]2CC[C@@H](C1)N2c1ccc(C#N)cn1)c1c(F)ccc2nccn12 (mixture of isomers) [Example 53, 6-(3-(3-((1-(6-fluoroimidazo[1,2-a]pyridin-5-yl)ethyl)amino)propanoyl)-3,8-diazabicyclo[3.2.1]octan-8-yl)nicotinonitrile]	10 to 100
CC(NCC(=O)N1CC2CCC(C1)N2c1ccc(C#N)cn1)c1cccc2ncnn12 (racemic) [Example 54, 6-(3-((1-([1,2,4]triazolo[1,5-a]pyridin-5-yl)ethyl)glycyl)-3,8-diazabicyclo[3.2.1]octan-8-yl)nicotinonitrile]	10 to 100
COc1c(F)cccc1C(C)NCC(=O)N1CC2CCC(C1)N2c1ccc(C#N)cn1 (racemic) [Example 55, 6-(3-((1-(3-fluoro-2-methoxyphenyl)ethyl)glycyl)-3,8-diazabicyclo[3.2.1]octan-8-yl)nicotinonitrile]	< 10
COc1cc(F)ccc1C(C)NCC(=O)N1CC2CCC(C1)N2c1ccc(C#N)cn1 (racemic) [Example 56, 6-(3-((1-(4-fluoro-2-methoxyphenyl)ethyl)glycyl)-3,8-diazabicyclo[3.2.1]octan-8-yl)nicotinonitrile]	< 10
COc1cc(C(C)NCC(=O)N2CC3CCC(C2)N3c2ccc(C#N)cn2)ccc1F (racemic) [Example 57, 6-(3-((1-(4-fluoro-3-methoxyphenyl)ethyl)glycyl)-3,8-diazabicyclo[3.2.1]octan-8-yl)nicotinonitrile]	< 10
N#Cc1ccc(N2C3CCC2CN(C(=O)CNC2CCc4ccccc42)C3)nc1 (racemic) [Example 89, 6-(3-((2,3-dihydro-1H-inden-1-yl)glycyl)-3,8-diazabicyclo[3.2.1]octan-8-yl)nicotinonitrile]	1000 to 10000
COc1ccc2c(c1)C(NCC(=O)N1CC3CCC(C1)N3c1ccc(C#N)cn1)CC2 (racemic) [Example 90, 6-(3-((6-methoxy-2,3-dihydro-1H-inden-1-yl)glycyl)-3,8-diazabicyclo[3.2.1]octan-8-yl)nicotinonitrile]	100 to 1000
N#Cc1ccc(N2C3CCC2CN(C(=O)CNC2CCc4cc(F)cc(F)c42)C3)nc1 (racemic) [Example 91, 6-(3-((5,7-difluoro-2,3-dihydro-1H-inden-1 yl)glycyl)-3,8-diazabicyclo[3.2.1]octan-8-yl)nicotinonitrile]	100 to 1000
N#Cc1ccc(N2C3CCC2CN(C(=O)CN2CCC2c2ccc(F)cc2)C3)nc1 (racemic) [Example 104]	> 1000
CC1c2ccccc2CCN1CC(=O)N1CC2CCC(C1)N2c1ccc(C#N)cn1 (racemic) [Example 106, 6-(3-(2-(1-methyl-3,4-dihydroisoquinolin-2(1H)-yl)acetyl)-3,8-diazabicyclo[3.2.1]octan-8-yl)nicotinonitrile]	100 to 1000
COc1ccc2c(c1)C(C)N(CC(=O)N1CC3CCC(C1)N3c1ccc(C#N)cn1)CC2 (racemic) [Example 120, 6-(3-(2-(7-methoxy-1-methyl-3,4-dihydroisoquinolin-2(1H)-yl)acetyl)-3,8-diazabicyclo[3.2.1]octan-8-yl)nicotinonitrile]	1000 to 10000
COc1cccc2c1CCN(CC(=O)N1CC3CCC(C1)N3c1ccc(C#N)cn1)C2C (racemic) [Example 121, 6-(3-(2-(5-methoxy-1-methyl-3,4-dihydroisoquinolin-2(1H)-yl)acetyl)-3,8-diazabicyclo[3.2.1]octan-8-yl)nicotinonitrile]	100 to 1000
COc1cncc(C(NCC(=O)N2CC3CCC(C2)N3c2ccc(C#N)cn2)C(F)F)c1 (racemic) [Example 127, 6-(3-((2,2-difluoro-1-(5-methoxypyridin-3-yl)ethyl)glycyl)-3,8-diazabicyclo[3.2.1]octan-8-yl)nicotinonitrile]	< 10
N#Cc1ccc(N2C3CCC2CN(C(=O)CNC(c2ccc(F)cc2F)C(F)F)C3)nc1 (racemic) [Example 128, 6-(3-((1-(2.4-difluorophenyl)-2,2-difluoroethyl)glycyl)-3,8-diazabicyclo[3.2.1]octan-8-yl)nicotinonitrile]	10 to 100
N#Cc1ccc(N2C3CCC2CN(C(=O)CCNC(c2ccc(F)c(F)c2)C(F)F)C3)nc1 (racemic) [Example 129, 6-(3-(3-((1-(3,4-difluorophenyl)-2,2-difluoroethyl)amino)propanoyl)-3,8-diazabicyclo[3.2.1]octan-8-yl)nicotinonitrile]	< 10
CC(SCC(=O)N1CC2CCC(C1)N2c1ccc(C#N)cn1)c1ccccc1 (racemic) [Example 132, 6-(3-(2-((1-phenylethyl)thio)acetyl)-3,8-diazabicyclo[3.2.1]octan-8-yl)nicotinonitrile]	< 10
CC(SCC(=O)N1CC2CCC(C1)N2c1ccc(C#N)cn1)c1ccc(F)cc1 (racemic) [Example 133, 6-(3-(2-((1-(4-fluorophenyl)ethyl)thio)acetyl)-3,8-diazabicyclo[3.2.1]octan-8-yl)nicotinonitrile]	10 to 100
CC(SCCC(=O)N1CC2CCC(C1)N2c1ccc(C#N)cn1)c1ccccc1 (racemic) [Example 134, 6-(3-(3-((1-phenylethyl)thio)propanoyl)-3,8-diazabicyclo[3.2.1]octan-8-yl)nicotinonitrile]	100 to 1000
CC(SCCC(=O)N1CC2CCC(C1)N2c1ccc(C#N)cn1)c1ccc(F)cc1 (racemic) [Example 135, 6-((3-((1-(4-fluorophenyl)ethyl)thio)propanoyl)-3,8-diazabicyclo[3.2.1]octan-8-yl)nicotinonitrile]	1000 to 10000
CC(SCCC(=O)N1CC2CCC(C1)N2c1ccc(C#N)cn1)c1ccccc1Br (racemic) [Example 136, 6-((3-((1-(2-bromophenyl)ethyl)thio)propanoyl)-3,8-diazabicyclo[3.2.1]octan-8-yl)nicotinonitrile]	100 to 1000
CC(c1ccc(F)c(F)c1)N1CC(C(=O)N2CC3CCC(C2)N3c2ccc(C#N)cn2)C1 (racemic) [Example 137, 6-(3-(1-(1-(3,4-difluorophenyl)ethyl)azetidine-3-carbonyl)-3,8-diazabicyclo[3.2.1]octan-8-yl)nicotinonitrile]	100 to 1000
